According to patent US20220325122A1, “Ink Set And Recording Method” (Seiko Epson Corporation, priority 2021, published 2022):

Conditions: water at 20° C.; stated in words

COCCOC [ethylene glycol dimethyl ether]
miscibility with water: completely miscible with water
